According to article PMC6658735 (Biomaterials, 2019):

Key:
AM microtissues [1] = system: AM microtissues
AM microtissues [2] = assay: Effect of ROCK inhibitor on AM cyst formation; format: cell-based, human; conditions: 10 μM
[3] = day 0 to day 3, control: Y27632 removed at day 1

| SMILES | toxicity on the AM development (dose-response, in words) (AM microtissues [1]) | cyst morphology (AM microtissues [2]; day 0 to day 3) | lumens per cyst (EZRIN immunostaining) (AM microtissues [2]; day 0 to day 3, control has a single central lumen) | average normalized nuclear intensity of GATA3 vs untreated control (AM microtissues [2]; [3]) | average normalized nuclear intensity of TFAP2A vs untreated control (AM microtissues [2]; [3]) | average normalized nuclear intensity of TFAP2B vs untreated control (AM microtissues [2]; [3]) |
| --- | --- | --- | --- | --- | --- | --- |
| COc1cccc2c1C(=O)c1c(O)c3c(c(O)c1C2=O)C[C@@](O)(C(=O)CO)C[C@@H]3O[C@H]1C[C@H](N)[C@H](O)[C@H](C)O1 [Doxorubicin] | induces massive cell death shortly after treatment |  |  |  |  |  |
| C[C@@H](N)[C@H]1CC[C@H](C(=O)Nc2ccncc2)CC1 [Y27632] |  | flattened and collapsed morphology without a visible single, central lumen | multiple EZRIN+ lumens | no significant differences | no significant differences | no significant differences |
